From patent US8063071B2 (GlaxoSmithKline, LLC, priority 2007, dated 2011)
Where a name gives a salt, the structure may show the parent alone.

Key:
[1] = molecular target: T1, Recombinant human IKKβ (residues 1-737) (Homo sapiens, UniProt O14920); experiment: IKK2 assay (TR-FRET); format: biochemical; settings: ATP 1 μM final, read-out: pIC50 against IKK2 (converted)
T1 construct: Recombinant human IKKβ (residues 1-737); GST (C); made in house
T1 sequence (O14920 1-737): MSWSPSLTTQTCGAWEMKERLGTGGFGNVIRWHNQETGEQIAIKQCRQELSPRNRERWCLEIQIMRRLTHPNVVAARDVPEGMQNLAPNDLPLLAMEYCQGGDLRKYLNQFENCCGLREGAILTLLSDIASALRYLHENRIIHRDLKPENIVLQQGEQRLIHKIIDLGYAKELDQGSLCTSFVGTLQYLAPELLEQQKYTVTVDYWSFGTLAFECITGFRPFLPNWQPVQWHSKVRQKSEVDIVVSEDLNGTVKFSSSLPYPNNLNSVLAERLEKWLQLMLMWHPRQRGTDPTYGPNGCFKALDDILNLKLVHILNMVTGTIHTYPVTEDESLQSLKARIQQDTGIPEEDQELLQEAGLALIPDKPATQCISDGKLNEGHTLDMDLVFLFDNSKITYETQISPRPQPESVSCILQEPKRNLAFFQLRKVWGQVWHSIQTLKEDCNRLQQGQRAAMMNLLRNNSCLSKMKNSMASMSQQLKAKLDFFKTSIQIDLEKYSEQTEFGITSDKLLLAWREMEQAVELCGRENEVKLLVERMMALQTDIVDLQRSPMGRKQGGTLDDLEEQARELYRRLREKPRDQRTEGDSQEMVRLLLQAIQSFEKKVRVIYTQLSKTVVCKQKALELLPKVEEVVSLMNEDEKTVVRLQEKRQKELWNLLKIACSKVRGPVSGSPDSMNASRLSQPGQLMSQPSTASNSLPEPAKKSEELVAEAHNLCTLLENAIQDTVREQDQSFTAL
Procedure, shortened: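 TR-FRET readout (665 nm over 620 nm Eu reference) of GST-IB Ser32/36 phosphorylation after 60 min detection. Reaction: 1 μM ATP, 25 nM substrate, 0.5-5 nM GST-fused IKKβ 1-737 from baculovirus, pH 7.4 HEPES buffer, 1.7% DMSO, 15 min room temperature, EDTA-terminated.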

[2] = test system: human monocyte stimulated cytokine production (TNF-α); experiment: Monocyte assay (LPS-stimulated TNF-α production); format: cell-based; settings: for IC50: 24 h, 200 ng/mL LPS, TNF-α by ELISA; for inhibition at 0.3 µM: read-out: inhibition at 300 nM in the monocyte assay
Protocol: Effect of IKK-β inhibition on human monocyte stimulated cytokine production was assessed as follows: Monocytes were isolated from heparinized whole blood by Ficoll gradient, followed by purification of CD14+ cells using MACS magnetic cell separation beads. Isolated monocytes were then adhered to 96-well culture plates at 1×10^6 cells/mL in RPMI 1640 10% FBS (JRH Biosciences, Lenexa Kans.) for 2 h. Test compounds are added to the wells 30 minutes prior to stimulation with a final vehicle concentration of 0.1% DMSO. Monocytes were activated by the addition of 200 ng/mL endotoxin (LPS; E. coli serotype 026:B6)(Sigma, St. Louis, Mo.) and incubated for 24 hrs at 37 C. Cell-free supernates were analyzed by ELISA for TNF-α using Pharmingen matched pair Abs. Viability of the cells was determined by 10% trypan blue exclusion.

Compound	IC50 [1] [nM]	IC50 [2] [nM]	inhibition at 0.3 µM [2] [%]
CCS(=O)(=O)N1CCC(c2c[nH]c3c(C(N)=O)cc(-c4cccc(CNS(=O)(=O)c5cc(Cl)sc5Cl)c4)cc23)CC1 [Example 375, 5-[3-({[(2,5-dichloro-3-thienyl)sulfonyl]amino}methyl)phenyl]-3-[1-(ethylsulfonyl)-4-piperidinyl]-1H-indole-7-carboxamide]	≤ 10000	> 1000	–
CCS(=O)(=O)N1CCC(c2c[nH]c3c(C(N)=O)cc(-c4cccc(CNCc5ccc(C)o5)c4)cc23)CC1 [Example 305, 3-[1-(ethylsulfonyl)-4-piperidinyl]-5-[3-({[(5-methyl-2-furanyl)methyl]amino}methyl)phenyl]-1H-indole-7-carboxamide trifluoroacetate]	≤ 10000	≤ 1500	–
CCS(=O)(=O)N1CCC(c2c[nH]c3c(C(N)=O)cc(-c4cncc(CNC(C)C)c4)cc23)CC1 [Example 191, 3-[1-(ethylsulfonyl)-4-piperidinyl]-5-(5-{[(1-methylethyl)amino]methyl}-3-pyridinyl)-1H-indole-7-carboxamide]	≤ 10000	≤ 1500	–
CCS(=O)(=O)N1CCC(c2c[nH]c3c(C(N)=O)cc(-c4cccc(CNS(=O)(=O)c5cn(C)c(C)n5)c4)cc23)CC1 [Example 378, 5-[3-({[(1,2-dimethyl-1H-imidazol-4-yl)sulfonyl]amino}methyl)phenyl]-3-[1-(ethylsulfonyl)-4-piperidinyl]-1H-indole-7-carboxamide]	≤ 10000	> 1000	–
CCS(=O)(=O)N1CCC(c2c[nH]c3c(C(N)=O)cc(-c4csc(CN[C@H](C)C(C)C)c4)cc23)CC1 [Example 113, 5-[5-({[(1R)-1,2-dimethylpropyl]amino}methyl)-3-thienyl]-3-[1-(ethylsulfonyl)-4-piperidinyl]-1H-indole-7-carboxamide trifluoroacetate]	≤ 10000	≤ 1500	–
CCS(=O)(=O)N1CCC(c2c[nH]c3c(C(N)=O)cc(-c4coc(CNC)c4)cc23)CC1 [Example 237, 3-[1-(ethylsulfonyl)-4-piperidinyl]-5-{5-[(methylamino)methyl]-3-furanyl}-1H-indole-7-carboxamide trifluoroacetate]	≤ 10000	≤ 1500	–
CCCNCCc1cccc(-c2cc(C(N)=O)c3[nH]cc(C4CCN(S(=O)(=O)CC)CC4)c3c2)c1 [Example 347, 3-[1-(ethylsulfonyl)-4-piperidinyl]-5-{3-[2-(propylamino)ethyl]phenyl}-1H-indole-7-carboxamide trifluoroacetate]	≤ 10000	–	0 to 60
CCS(=O)(=O)N1CCC(c2c[nH]c3c(C(N)=O)cc(-c4ccc(N5CCN(C(C)=O)CC5)nc4)cc23)CC1 [Example 389, 5-[6-(4-acetyl-1-piperazinyl)-3-pyridinyl]-3-[1-(ethylsulfonyl)-4-piperidinyl]-1H-indole-7-carboxamide trifluoroacetate]	≤ 10000	> 1000	–
CCCNc1ccc(-c2cc(C(N)=O)c3[nH]cc(C4CCN(S(=O)(=O)CC)CC4)c3c2)cn1 [Example 227, 3-[1-(ethylsulfonyl)-4-piperidinyl]-5-[6-(propylamino)-3-pyridinyl]-1H-indole-7-carboxamide trifluoroacetate]	≤ 10000	≤ 1500	–
CCC(C)CNCc1cccc(-c2cc(C(N)=O)c3[nH]cc(C4CCN(S(=O)(=O)CC)CC4)c3c2)c1 (stereo not drawn) [Example 309, 3-[1-(ethylsulfonyl)-4-piperidinyl]-5-(3-{[(2-methylbutyl)amino]methyl}phenyl)-1H-indole-7-carboxamide]	≤ 10000	≤ 1500	–
CCN(CC)CCNCCn1cc(-c2cc(C(N)=O)c3[nH]cc(C4CCN(S(=O)(=O)CC)CC4)c3c2)cn1 [Example 258, 5-[1-(2-{[2-(diethylamino)ethyl]amino}ethyl)-1H-pyrazol-4-yl]-3-[1-(ethylsulfonyl)-4-piperidinyl]-1H-indole-7-carboxamide trifluoroacetate]	≤ 10000	> 1000	–
CCS(=O)(=O)N1CCC(c2c[nH]c3c(C(N)=O)cc(-c4ccnc(N5CCCC5)c4)cc23)CC1 [Example 203, trifluoroacetate]	≤ 10000	> 1000	–
CCS(=O)(=O)N1CCC(c2c[nH]c3c(C(N)=O)cc(-c4cccc(CN(CCOC)CCOC)c4)cc23)CC1 [Example 8, 5-[3-({bis[2-(methyloxy)ethyl]amino}methyl)phenyl]-3-[1-(ethylsulfonyl)-4-piperidinyl]-1H-indole-7-carboxamide]	≤ 10000	≤ 1500	–
CCS(=O)(=O)N1CCC(c2c[nH]c3c(C(N)=O)cc(-c4csc(CNCC(C)C)c4)cc23)CC1 [Example 105, 3-[1-(ethylsulfonyl)-4-piperidinyl]-5-(5-{[(2-methylpropyl)amino]methyl}-3-thienyl)-1H-indole-7-carboxamide trifluoroacetate]	≤ 10000	≤ 1500	–
CCNCc1cccc(-c2cc(C(N)=O)c3[nH]cc(C4CCN(S(=O)(=O)CC)CC4)c3c2)c1 [Example 23, 5-{3-[(ethylamino)methyl]phenyl}-3-[1-(ethylsulfonyl)-4-piperidinyl]-1H-indole-7-carboxamide]	≤ 10000	≤ 1500	–
CCS(=O)(=O)N1CCC(c2c[nH]c3c(C(N)=O)cc(-c4cccc(CN5CCCC5c5cccs5)c4)cc23)CC1 (stereo not drawn) [Example 11, 3-[1-(ethylsulfonyl)-4-piperidinyl]-5-(3-{[2-(2-thienyl)-1-pyrrolidinyl]methyl}phenyl)-1H-indole-7-carboxamide]	≤ 10000	≤ 1500	–
CCS(=O)(=O)N1CCC(c2c[nH]c3c(C(N)=O)cc(-c4csc(CN5CCCC5CC(C)C)c4)cc23)CC1 (stereo not drawn) [Example 97, 3-[1-(ethylsulfonyl)-4-piperidinyl]-5-(5-{[2-(2-methylpropyl)-1-pyrrolidinyl]methyl}-3-thienyl)-1H-indole-7-carboxamide]	–	–	0 to 60
CCCOCCCNCc1ccc(-c2cc(C(N)=O)c3[nH]cc(C4CCN(S(=O)(=O)CC)CC4)c3c2)s1 [Example 198, 3-[1-(ethylsulfonyl)-4-piperidinyl]-5-[5-({[3-(propyloxy)propyl]amino}methyl)-2-thienyl]-1H-indole-7-carboxamide]	–	–	0 to 60
CCS(=O)(=O)N1CCC(c2c[nH]c3c(C(N)=O)cc(-c4ccc(CNCC(C)C)s4)cc23)CC1 [Example 243, 3-[1-(ethylsulfonyl)-4-piperidinyl]-5-(5-{[(2-methylpropyl)amino]methyl}-2-thienyl)-1H-indole-7-carboxamide trifluoroacetate]	–	≤ 1500	–
CCS(=O)(=O)N1CCC(c2c[nH]c3c(C(N)=O)cc(-c4cc(CNC(C)C)c5c(c4)OCC5)cc23)CC1 [Example 59, 3-[1-(ethylsulfonyl)-4-piperidinyl]-5-(4-{[(1-methylethyl)amino]methyl}-2,3-dihydro-1-benzofuran-6-yl)-1H-indole-7-carboxamide]	–	–	0 to 60
CCS(=O)(=O)N1CCC(c2c[nH]c3c(C(N)=O)cc(-c4csc(CNCC(C)(C)C)c4)cc23)CC1 [Example 117, 5-(5-{[(2,2-dimethylpropyl)amino]methyl}-3-thienyl)-3-[1-(ethylsulfonyl)-4-piperidinyl]-1H-indole-7-carboxamide trifluoroacetate]	–	≤ 1500	–
CCS(=O)(=O)N1CCC(c2c[nH]c3c(C(N)=O)cc(-c4cccc(-n5cccn5)c4)cc23)CC1 [Example 164, 3-[1-(ethylsulfonyl)-4-piperidinyl]-5-[3-(1H-pyrazol-1-yl)phenyl]-1H-indole-7-carboxamide]	–	≤ 1500	–
CCS(=O)(=O)N1CCC(c2c[nH]c3c(C(N)=O)cc(-c4cncc(CNCC5CC5)c4)cc23)CC1 [Example 173, 5-(5-{[(cyclopropylmethyl)amino]methyl}-3-pyridinyl)-3-[1-(ethylsulfonyl)-4-piperidinyl]-1H-indole-7-carboxamide]	–	–	0 to 60
